Measurements reported in US8557816B2, “Aurora kinase modulators and method of use” (Amgen Inc., priority 2007, dated 2013).
Where two headings read alike, the source gives them in different places.

What was measured:
AuroraB = biological target: T1, AuroraB (Homo sapiens, UniProt Q96GD4); assay: AuroraB Homogeneous Time Resolved Fluorescent (HTRF) kinase assay; assay type: biochemical
T1 construct: 20 μL of AuroraB FL H is for a final volume of 41 μL; His
Procedure: AuroraB-Homogeneous Time Resolved Fluorescent (HTRF) Kinase Assay:
The AuroraB HTRF assay begins with AuroraB in the presence of ATP phosphorylating the biotinylated peptide Histone H3. The reaction incubates for about 90 min. the reaction is quenched by addition of detection reagents, which stop the reaction by diluting out the enzyme and chelating the metals due to the presence of EDTA. After addition, the assay is incubated for about 60 min to allow detection reagents to equilibrate.
The AuroraB HTRF assay comprises 1 μL of compound in 100% DMSO, 20 μL of ATP and biotinylated Histone H3, and 20 μL of AuroraB FL H is for a final volume of 41 μL. The final concentration of Histone H3 is 0.1 μM. […] Buffer conditions are as follows: 50 mM HEPES pH 7.5, 5 mM NaCl, 0.5 mM MgCl, 0.5 mM MnCl, 2 mM DTT, 0.05% BSA.
(§1) The assay is quenched and stopped with 160 μL of detection reagent. Detection reagents are as follows: Buffer made of 50 mM Tris, pH 7.5, 100 mM NaCl, 3 mM EDTA, 0.05% BSA, 0.1% Tween20. Added to this buffer prior to reading is Steptavidin allophycocyanin (SA-APC) at a final conc in the assay of 0.001 mg/mL, and europilated anti-phosphoHistoneH3 Ab (Eu-anti-HisH3) at a final conc of 0.064 nM.
The assay plate is read in either a Discovery or a RubyStar. The eu-anti-HisH3 is excited at 320 nm and emits at 615 nm to excite the SA-APC which in turn emits at 655 nm.

AuroraA-TPX2 = biological target: T2, AuroraA-TPX2 (Homo sapiens, UniProt O14965); assay: AuroraA-TPX2 Homogeneous Time Resolved Fluorescent (HTRF) kinase assay; assay type: biochemical; settings: average; read-out: AurA_IC50_IP (uM Avg)
T2 construct: 20 μL of AuroraA-TPX2 KD GST for a final volume of about 41 μL; GST
T2 sequence (O14965 133-383 limits assumed): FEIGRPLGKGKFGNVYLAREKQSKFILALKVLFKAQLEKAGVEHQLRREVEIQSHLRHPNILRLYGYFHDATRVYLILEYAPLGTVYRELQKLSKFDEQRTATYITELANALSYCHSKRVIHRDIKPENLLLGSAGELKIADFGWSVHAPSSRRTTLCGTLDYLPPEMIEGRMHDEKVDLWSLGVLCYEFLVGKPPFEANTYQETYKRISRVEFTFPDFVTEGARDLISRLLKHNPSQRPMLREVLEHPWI
T2 sequence (Q9ULW0 1-43 partner limits assumed): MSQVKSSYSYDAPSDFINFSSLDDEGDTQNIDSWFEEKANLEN
Procedure: AuroraA-TPX2-Homogeneous Time Resolved Fluorescent (HTRF) Kinase Assay:
The Aurora-A HTRF assay begins with Aurora-A in the presence of ATP phosphorylating the biotinylated peptide PLK. The reaction incubates for about 120 min. Detection reagents are added to quench the reaction. These agents stop the reaction by diluting out the enzyme and chelating the metals due to the presence of EDTA. After addition, the assay is incubated overnight to allow the detection reagents to equilibrate.
The AuroraA HTRF assay comprises 1 μL of compound in 100% DMSO, 20 μL of ATP and biotinylated PLK, and 20 μL of AuroraA-TPX2 KD GST for a final volume of about 41 μL. The final concentration of PLK is about 1 μM. […] Buffer conditions are as follows: 60 mM HEPES pH 7.5, 25 mM NaCl, 10 mM MgCl, 2 mM DTT, 0.05% BSA.
as §1, with “0.0005” for “0.001”, “anti-phosphoPLK” for “anti-phosphoHistoneH3”, “(Eu-anti-PLK)” for “(Eu-anti-HisH3)”, “0.02” for “0.064”
The assay plate is read in either a Discovery or a RubyStar. The eu-anti-PLK is excited at 320 nm and emits at 615 nm to excite the SA-APC which in turn emits at 655 nm.

[1] = average, read-out: AurB_IC50_IP (uM Avg)

T1 sequence (Q96GD4 whole entry): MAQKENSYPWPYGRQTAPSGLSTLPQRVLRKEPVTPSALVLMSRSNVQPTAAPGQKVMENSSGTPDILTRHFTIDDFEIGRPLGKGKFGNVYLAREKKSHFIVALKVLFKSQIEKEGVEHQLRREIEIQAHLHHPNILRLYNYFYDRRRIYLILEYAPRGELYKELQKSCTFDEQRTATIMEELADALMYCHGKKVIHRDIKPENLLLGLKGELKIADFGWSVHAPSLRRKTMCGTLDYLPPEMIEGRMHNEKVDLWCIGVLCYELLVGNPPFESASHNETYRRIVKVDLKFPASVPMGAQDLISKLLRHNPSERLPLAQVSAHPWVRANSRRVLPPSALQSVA

Compound: COc1cnc2c(Oc3ccc(Nc4nnc(-c5cccc(C#N)c5)c5ccccc45)cc3)ccnc2c1 [Example 29, 3-(4-(4-(7-methoxy-1,5-naphthyridin-4-yloxy)phenylamino)phthalazin-1-yl)benzonitrile]
- IC50 (AuroraB; [1]): 0.018 µM
- IC50 (AuroraA-TPX2): 0.139 µM

Compound: COc1cnc2c(Oc3ccc(Nc4nnc(-c5nccn5C)c5ccccc45)cc3)ccnc2c1 [Example 30, N-(4-(7-methoxy-1,5-naphthyridin-4-yloxy)phenyl)-4-(1-methyl-1H-imidazol-2-yl)phthalazin-1-amine]
- IC50 (AuroraA-TPX2): 1.39 µM

Compound: COc1cnc2c(Oc3ccc(Nc4nnc(C#CC(C)(C)C)c5ccccc45)cc3)ccnc2c1 [Example 31, 4-(3,3-dimethylbut-1-ynyl)-N-(4-(7-methoxy-1,5-naphthyridin-4-yloxy)phenyl)phthalazin-1-amine]
- IC50 (AuroraB; [1]): 0.008 µM
- IC50 (AuroraA-TPX2): 0.033 µM

Compound: COc1cnc2c(Oc3ccc(Nc4nnc(N5CCCCCC5)c5ccccc45)cc3)ccnc2c1 [Example 32, 4-(azepan-1-yl)-N-(4-(7-methoxy-1,5-naphthyridin-4-yloxy)phenyl)phthalazin-1-amine]
- IC50 (AuroraB; [1]): 0.009 µM
- IC50 (AuroraA-TPX2): 0.016 µM

Compound: Clc1ccc(-c2nnc(Nc3ccc(Sc4ccnc5cccnc45)cc3)c3ccccc23)cc1 [Example 33, N-(4-(1,5-naphthyridin-4-ylthio)phenyl)-4-(4-chlorophenyl)phthalazin-1-amine]
- IC50 (AuroraB; [1]): 0.003 µM
- IC50 (AuroraA-TPX2): 0.022 µM

Compound: COc1cnc2c(Nc3cnc(Nc4nnc(-c5ccccc5)c5ccccc45)nc3)ccnc2c1 [Example 36, N^5-(7-Methoxy-1,5-naphthyridin-4-yl)-N^2-(4-phenylphthalazin-1-yl)pyrimidine-2,5-diamine]
- IC50 (AuroraB; [1]): 0.004 µM
- IC50 (AuroraA-TPX2): 0.038 µM

Compound: COc1ccc(-c2nnc(Nc3ccc(Oc4ccnc5cc(OC)cnc45)cc3)c3ccccc23)cc1 [Example 37, N-(4-(7-methoxy-1,5-naphthyridin-4-yloxy)phenyl)-4-(4-methoxyphenyl)phthalazin-1-amine]
- IC50 (AuroraB; [1]): 0.004 µM
- IC50 (AuroraA-TPX2): 0.02 µM

Compound: COc1cnc2c(Oc3ccc(Nc4nnc(-c5ccc(C(C)(C)C)cc5)c5ccccc45)cc3)ccnc2c1 [Example 38, 4-(4-tert-butylphenyl)-N-(4-(7-methoxy-1,5-naphthyridin-4-yloxy)phenyl)phthalazin-1-amine]
- IC50 (AuroraB; [1]): 0.017 µM
- IC50 (AuroraA-TPX2): 0.023 µM

Compound: COc1ccc2c(Oc3ccc(Nc4nnc(-c5ccc(C(F)(F)F)cc5)c5ccccc45)cc3)c(F)cnc2c1 [Example 39, N-(4-(3-fluoro-7-methoxyquinolin-4-yloxy)phenyl)-4-(4-(trifluoromethyl)phenyl) phthalazin-1-amine]
- IC50 (AuroraB; [1]): 1 µM

Compound: COc1cnc2c(Nc3ccc(Nc4nnc(-c5ccccc5)c5ccccc45)cc3)ccnc2c1 [Example 40, N^1-(7-methoxy-1,5-naphthyridin-4-yl)-N^4-(4-phenylphthalazin-1-yl)benzene-1,4-diamine]
- IC50 (AuroraB; [1]): 0.007 µM
- IC50 (AuroraA-TPX2): 0.044 µM

Compound: COc1cnc2c(Oc3ccc(Nc4nnc(-c5ccccc5)c5ccccc45)cn3)ccnc2c1 [Example 41, N-(6-(7-methoxy-1,5-naphthyridin-4-yloxy)pyridin-3-yl)-4-phenylphthalazin-1-amine]
- IC50 (AuroraB; [1]): 0.009 µM
- IC50 (AuroraA-TPX2): 0.079 µM

Compound: c1ccc(-c2nnc(Nc3ccc(Oc4ccnc5cc(N6CCOCC6)ccc45)cc3)c3ccccc23)cc1 [Example 42, N-(4-(7-Morpholinoquinolin-4-yloxy)phenyl)-4-phenylphthalazin-1-amine]
- IC50 (AuroraB; [1]): 0.002 µM
- IC50 (AuroraA-TPX2): 0.011 µM

Compound: CC(=O)Nc1ccc2nccc(Oc3ccc(Nc4nnc(-c5ccccc5)c5ccccc45)cc3)c2c1 [Example 43, N-(4-(4-(4-Phenylphthalazin-1-ylamino)phenoxy)quinolin-6-yl)acetamide]
- IC50 (AuroraB; [1]): 0.008 µM
- IC50 (AuroraA-TPX2): 0.112 µM

Compound: N#Cc1ccc2c(Oc3ccc(Nc4nnc(-c5ccccc5)c5ccccc45)cn3)ccnc2c1 [compound 174, 4-(5-(4-phenylphthalazin-1-ylamino)pyridin-2-yloxy)quinoline-7-carbonitrile]
- IC50 (AuroraB; [1]): 5 µM

Compound: COc1cnc2c(Oc3ccc(Nc4nnc(-c5cccc(N6CCCCC6)c5)c5ccccc45)cc3)ccnc2c1 [compound 197, N-(4-((7-(methyloxy)-1,5-naphthyridin-4-yl)oxy)phenyl)-4-(3-(1-piperidinyl)phenyl)-1-phthalazinamine]
- IC50 (AuroraA-TPX2): 0.034 µM

Compound: Cc1ccc(-c2nnc(Nc3ccc(Oc4ccnc5cc(-c6cncn6C)sc45)cc3)c3ccccc23)nc1 [compound 255, N-(4-((2-(1-methyl-1H-imidazol-5-yl)thieno[3,2-b]pyridin-7-yl)oxy)phenyl)-4-(5-methyl-2-pyridinyl)-1-phthalazinamine]
- IC50 (AuroraA-TPX2): 0.005 µM

Compound: Cn1cncc1-c1cc2nccc(Oc3ccc(Nc4nnc(-c5ccc(Cl)cc5)c5ccccc45)cn3)c2s1 [compound 267, 4-(4-chlorophenyl)-N-(6-((2-(1-methyl-1H-imidazol-5-yl)thieno[3,2-b]pyridin-7-yl)oxy)-3-pyridinyl)-1-phthalazinamine]
- IC50 (AuroraA-TPX2): 0.011 µM

Compound: COc1cc2nncc(Oc3ccc(Nc4nnc(-c5ccc(Cl)cc5)c5ccccc45)cc3)c2cc1OC [compound 282, N-(4-((6,7-bis(methyloxy)-4-cinnolinyl)oxy)phenyl)-4-(4-chlorophenyl)-1-phthalazinamine]
- IC50 (AuroraB; [1]): 0.189 µM

Compound: Fc1cc(F)c2c(Sc3ccc(Nc4nnc(-c5ccccc5)c5ccccc45)cc3)ccnc2c1 [compound 295, N-(4-((5,7-difluoro-4-quinolinyl)thio)phenyl)-4-phenyl-1-phthalazinamine]
- IC50 (AuroraB; given as class symbol, read-out: AurB_IC50_IP (class symbol)): < 0.1 µM

Compound: Cc1noc(-c2cc3nccc(Sc4ccc(Nc5nnc(-c6ccccc6)c6ccccc56)cc4)c3s2)n1 [compound 303, N-(4-((2-(3-methyl-1,2,4-oxadiazol-5-yl)thieno[3,2-b]pyridin-7-yl)thio)phenyl)-4-phenyl-1-phthalazinamine]
- IC50 (AuroraB; [1]): 0.07 µM

Compound: Fc1cc(F)c2c(Sc3ccc(Nc4nnc(-c5ccccc5)c5ccccc45)cc3)ccnc2c1 [compound 311, N-(4-((5,7-difluoro-4-quinolinyl)thio)phenyl)-4-phenyl-1-phthalazinamine]
- IC50 (AuroraB; [1]): 0.093 µM

Compound: Cc1noc(-c2cc3nccc(Sc4ccc(Nc5nnc(-c6ccccc6)c6ccccc56)cc4)c3s2)n1 [compound 318, N-(4-((2-(3-methyl-1,2,4-oxadiazol-5-yl)thieno[3,2-b]pyridin-7-yl)thio)phenyl)-4-phenyl-1-phthalazinamine]
- IC50 (AuroraB; [1]): 0.07 µM

Compound: Clc1ccc(-c2nnc(Nc3ccc(Sc4ccnc5ccccc45)cc3)c3ccccc23)cc1 [compound 333, 4-(4-chlorophenyl)-N-(4-(quinolin-4-ylthio)phenyl)phthalazin-1-amine]
- IC50 (AuroraB; [1]): 0.036 µM

Compound: Clc1ccc(-c2nnc(Nc3ccc(CN4CCOc5ccccc54)cc3)c3ccccc23)cc1 [compound 349, 4-(4-chlorophenyl)-N-(4-((2,3-dihydrobenzo[b][1,4]oxazin-4-yl)methyl)phenyl)phthalazin-1-amine]
- IC50 (AuroraB; [1]): 0.045 µM

Compound: CNC(=O)c1cc(Sc2ccc(Nc3nnc(-c4ccc(Cl)cc4)c4ccccc34)cc2)ccn1 [compound 360, 4-(4-(4-(4-chlorophenyl)phthalazin-1-ylamino)phenylthio)-N-methylpicolinamide]
- IC50 (AuroraB; [1]): 0.345 µM

Compound: Clc1ccc(-c2nnc(Nc3ccc(Oc4cnnc5ccc(Br)cc45)cc3)c3ccccc23)cc1 [compound 369, N-(4-(6-bromocinnolin-4-yloxy)phenyl)-4-(4-chlorophenyl)phthalazin-1-amine]
- IC50 (AuroraB; [1]): 3 µM
